# Assay results published in patent US8735398B2 (Bristol-Myers Squibb Company, priority 2009, dated 2014).
# Tested on: HCV 1b genotype
# Assay: HCV replicon assay (HCV-neo replicon cells, wild-type)
# Format: cell-based, Hepatitis C virus
# Conditions: HCV 1b genotype replicon; class symbol; read-out: EC50 Range against HCV 1b
# Outline: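 HCV-neo replicon cells (wild-type) and replicon cells carrying NS5A resistance substitutions were treated with compounds; assay per O'Boyle et al. 2005, with luciferase-reporter read-out variants also used.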
row,SMILES,EC50
1,"CC(O)(C(=O)N1C(C(=O)Nc2ccc(-c3cnc(-c4ccc(NC(=O)C5CC6CC6N5C(=O)C(C)(O)c5ccccc5)cc4)o3)cc2)CC2CC21)c1ccccc1 [CB-8, (1S,3S,5S,1′S,3′S,5′S)-N,N′-(1,3-oxazole-2,5-diyldi-4,1-phenylene)bis(2-((2S)-2-hydroxy-2-phenylpropanoyl)-2-azabicyclo[3.1.0]hexane-3-carboxamide)]",< 0.00457 µM

# Same assay, conditions: HCV 1b genotype replicon; class symbols; read-out: EC50 Range against HCV 1b
row,SMILES,EC50
1,"O=C(O)CCC(=O)N1CCC[C@H]1C(=O)Nc1ccc(-c2cnc(-c3ccc(NC(=O)[C@@H]4CCCN4C(=O)CCC(=O)O)cc3)o2)cc1 [XY-13, 4,4′-(1,3-oxazole-2,5-diylbis(4,1-phenylenecarbamoyl(2S)-2,1-pyrrolidinediyl))bis(4-oxobutanoic acid)]",1 to 10 µM
2,"CN(C)[C@H](C(=O)N1CCC[C@H]1C(=O)Nc1ccc(-c2cnc(-c3ccc(NC(=O)[C@@H]4CCCN4C(=O)[C@H]([C@H](O)c4ccsc4)N(C)C)cc3)o2)cc1)[C@H](O)c1ccsc1 [JR-16, (S,R,2S)-N,N′-(4,4′-(oxazole-2,5-diyl)bis(4,1-phenylene))bis(1-((2S,3R)-2-(dimethylamino)-3-hydroxy-3-(thiophen-3-yl)propanoyl)pyrrolidine-2-carboxamide)]",1 to 10 µM
3,"CN(C)C(Cc1ccc(Br)cc1)C(=O)N1CCC[C@H]1C(=O)Nc1ccc(-c2cnc(-c3ccc(NC(=O)[C@@H]4CCCN4C(=O)C(Cc4ccc(Br)cc4)N(C)C)cc3)o2)cc1 (stereo partly drawn) [JR-8, (2S)-N,N′-(4,4′-(oxazole-2,5-diyl)bis(4,1-phenylene))bis(1-(3-(4-bromophenyl)-2-(dimethylamino)propanoyl)pyrrolidine-2-carboxamide)]",0.00457 to 0.099 µM

# Same assay, conditions: HCV 1b genotype replicon; read-out: EC50 1b
row,SMILES,EC50
1,"O=C(O)CCC(=O)N1CCC[C@H]1C(=O)Nc1ccc(-c2cnc(-c3ccc(NC(=O)[C@@H]4CCCN4C(=O)CCC(=O)O)cc3)o2)cc1 [XY-13, 4,4′-(1,3-oxazole-2,5-diylbis(4,1-phenylenecarbamoyl(2S)-2,1-pyrrolidinediyl))bis(4-oxobutanoic acid)]",4.54 µM
2,"CC(O)(C(=O)N1C(C(=O)Nc2ccc(-c3cnc(-c4ccc(NC(=O)C5CC6CC6N5C(=O)C(C)(O)c5ccccc5)cc4)o3)cc2)CC2CC21)c1ccccc1 [CB-8, (1S,3S,5S,1′S,3′S,5′S)-N,N′-(1,3-oxazole-2,5-diyldi-4,1-phenylene)bis(2-((2S)-2-hydroxy-2-phenylpropanoyl)-2-azabicyclo[3.1.0]hexane-3-carboxamide)]",< 0.005 µM

# Same assay, conditions: Hepatitis C virus, HCV 1b genotype replicon; class symbol; read-out: EC50 Range against HCV 1b
row,SMILES,EC50
1,"C[C@H](NC(=O)OCc1ccccc1)C(=O)Nc1ccc(-c2nc(CC(=O)O)oc2-c2ccc(NC(=O)[C@H](C)NC(=O)OCc3ccccc3)cc2)cc1 [OL-1, 4,5-bis[4-[[(2S)-1-oxo-2-[[(phenylmethoxy)carbonyl]amino]propyl]amino]phenyl]-2-oxazoleacetic acid]",1 to 10 µM
2,"O=C(Cc1ccccc1)NC1(C(=O)Nc2ccc(-c3cnc(-c4ccc(NC(=O)C5(NC(=O)Cc6ccccc6)CC5)cc4)o3)cc2)CC1 [JG-18, N,N′-(1,3-oxazole-2,5-diyldi-4,1-phenylene)bis(1-((phenylacetyl)amino)cyclopropanecarboxamide)]",1 to 10 µM
3,"O=C(Nc1ccc(-c2ncc(-c3ccc(NC(=O)[C@@H]4CCCN4C(=O)C4CC4)cc3)o2)cc1)C1CCCN1C(=O)C1CC1 (stereo in doubt) [JG-7, (2S,2′S)-N,N′-(1,3-oxazole-2,5-diyldi-4,1-phenylene)bis(1-(cyclopropylcarbonyl)-2-pyrrolidinecarboxamide)]",0.1 to 0.999 µM
4,"CN(C)[C@@H](C(=O)N1CCCN1C(=O)Nc1ccc(-c2cnc(-c3ccc(NC(=O)N4CCCN4C(=O)[C@@H](c4ccccc4)N(C)C)cc3)o2)cc1)c1ccccc1 [FY-9, N,N′-(1,3-oxazole-2,5-diyldi-4,1-phenylene)bis(2-((2R)-2-(dimethylamino)-2-phenylacetyl)-1-pyrazolidinecarboxamide)]",0.00457 to 0.099 µM
5,"O=C(O)Cc1nc(-c2ccc(NC(=O)[C@@H]3CCCN3C(=O)OCc3ccccc3)cc2)c(-c2ccc(NC(=O)[C@@H]3CCCN3C(=O)OCc3ccccc3)cc2)o1 [OL-3, 4,5-bis[4-[[[(2S)-1-[(phenylmethoxy)carbonyl]-2-pyrrolidinyl]carbonyl]amino]phenyl]-2-oxazoleacetic acid]",1 to 10 µM
6,"O=C(Nc1ccc(-c2ccc(-c3ccc(NC(=O)[C@@H]4CCCN4C(=O)c4nc(Cl)cc5ccccc45)cc3)o2)cc1)[C@@H]1CCCN1C(=O)c1nc(Cl)cc2ccccc12 [JG-61, (2S,2′S)-N,N′-(2,5-furandiyldi-4,1-phenylene)bis(1-((3-chloro-1-isoquinolinyl)carbonyl)-2-pyrrolidinecarboxamide)]",1 to 10 µM
7,"O=C(Nc1ccc(-c2nncn2-c2ccc(NC(=O)[C@@H]3C[C@@H](O)CN3C(=O)Cc3ccccc3)cc2)cc1)[C@@H]1C[C@@H](O)CN1C(=O)Cc1ccccc1 [OL-17, (2S,4R,2′S,4′R)-N,N′-(4H-1,2,4-triazole-3,4-diyldi-4,1-phenylene)bis[4-hydroxy-1-(phenylacetyl)-2-pyrrolidinecarboxamide]]",1 to 10 µM
8,"CO[C@H](C(=O)N1CCC[C@H]1C(=O)Nc1ccc(-c2nc[nH]c2-c2ccc(NC(=O)[C@@H]3CCCN3C(=O)[C@@H](OC)c3ccccc3)cc2)cc1)c1ccccc1 [JG-45, (2S,2′S)-N,N′-(1H-imidazole-4,5-diyldi-4,1-phenylene)bis(1-((2S)-2-methoxy-2-phenylacetyl)-2-pyrrolidinecarboxamide)]",0.00457 to 0.099 µM
9,"COc1cccc2c(C(=O)N3CCC[C@H]3C(=O)Nc3ccc(-c4cnc(-c5ccc(NC(=O)[C@@H]6CCCN6C(=O)[C@@H](c6ccccc6)N(C)C)cc5)o4)cc3)nc(Cl)cc12 [OL-61, (2S)-1-((3-chloro-5-methoxy-1-isoquinolinyl)carbonyl)-N-(4-(2-(4-((((2S)-1-((2R)-2-(dimethylamino)-2-phenylacetyl)-2-pyrrolidinyl)carbonyl)amino)phenyl)-1,3-oxazol-5-yl)phenyl)-2-pyrrolidinecarboxamide]",0.00457 to 0.099 µM
10,"O=C(Nc1ccc(-c2nnc(-c3ccc(NC(=O)[C@@H]4CCCN4C(=O)[C@@H]4CCCO4)cc3)o2)cc1)[C@@H]1CCCN1C(=O)C1CCCO1 (stereo partly drawn) [Example D-60, (S,2S,2′S)-N,N′-(4,4′-(1,3,4-oxadiazole-2,5-diyl)bis(4,1-phenylene))bis(1-((S)-tetrahydrofuran-2-carbonyl)pyrrolidine-2-carboxamide)]",0.1 to 0.999 µM
11,"O=C(Nc1ccc(-c2cc(-c3ccc(NC(=O)[C@@H]4CCCN4C(=O)c4cc5ccccc5o4)cc3)[nH]n2)cc1)[C@@H]1CCCN1C(=O)c1cc2ccccc2o1 [JG-40, (2S,2′S)-N,N′-(1H-pyrazole-3,5-diyldi-4,1-phenylene)bis(1-(1-benzofuran-2-ylcarbonyl)-2-pyrrolidinecarboxamide)]",0.1 to 0.999 µM
12,"O=C(Nc1ccc(-c2nc[nH]c2-c2ccc(NC(=O)[C@@H]3CCCN3C(=O)c3ccc4occc4c3)cc2)cc1)[C@@H]1CCCN1C(=O)c1ccc2occc2c1 [JG-52, (2S,2′S)-N,N′-(1H-imidazole-4,5-diyldi-4,1-phenylene)bis(1-(1-benzofuran-5-ylcarbonyl)-2-pyrrolidinecarboxamide)]",0.1 to 0.999 µM
13,"CC(NC(=O)[C@@H](O)c1ccccc1)C(=O)Nc1ccc(-c2cc(-c3ccc(NC(=O)[C@H](C)NC(=O)[C@@H](O)c4ccccc4)cc3)n[nH]2)cc1 (stereo in doubt) [OL-43, (S)-2-((S)-2-hydroxy-2-phenylacetamido)-N-(4-(5-(4-((R)-2-((S)-2-hydroxy-2-phenylacetamido)propanamido)phenyl)-1H-pyrazol-3-yl)phenyl)propanamide]",0.00457 to 0.099 µM
14,"O=C(Nc1ccc(-c2nnc(-c3ccc(NC(=O)[C@@H]4CCCN4C(=O)[C@H](O)c4ccccc4)cc3)o2)cc1)[C@@H]1CCCN1C(=O)[C@H](O)c1ccccc1 [RK-16, (2S,2′S)-N,N′-(1,3,4-oxadiazole-2,5-diyldi-4,1-phenylene)bis(1-((2R)-2-hydroxy-2-phenylacetyl)-2-pyrrolidinecarboxamide)]",< 0.00457 µM
15,"O=C(Nc1ccc(-c2cc(-c3ccc(NC(=O)[C@@H]4C[C@@H](O)CN4C(=O)Cc4ccccc4)cc3)[nH]n2)cc1)[C@@H]1C[C@@H](O)CN1C(=O)Cc1ccccc1 [OL-28, (2S,4R,2′S,4′R)-N,N′-(1H-pyrazole-3,5-diyldi-4,1-phenylene)bis(4-hydroxy-1-(phenylacetyl)-2-pyrrolidinecarboxamide)]",0.00457 to 0.099 µM

# Same assay, conditions: Hepatitis C virus, HCV 1b genotype replicon; class symbols; read-out: EC50 Range against HCV 1b
row,SMILES,EC50
1,"O=C(Nc1ccc(-c2cnc(-c3ccc(NC(=O)[C@@H]4C[C@@H](O)CN4C(=O)[C@H]4CCCO4)cc3)o2)cc1)[C@@H]1C[C@@H](O)CN1C(=O)[C@H]1CCCO1 [XY-50, (2S,4R,2′S,4′R)-N,N′-(1,3-oxazole-2,5-diyldi-4,1-phenylene)bis(4-hydroxy-1-((2R)-tetrahydro-2-furanylcarbonyl)-2-pyrrolidinecarboxamide)]",1 to 10 µM
2,"O=C(Nc1ccc(-c2cnc(-c3ccc(NC(=O)[C@@H]4C[C@@H](O)CN4C(=O)C4CCC4)cc3)o2)cc1)[C@@H]1C[C@@H](O)CN1C(=O)C1CCC1 [XY-46, (2S,4R,2′S,4′R)-N,N′-(1,3-oxazole-2,5-diyldi-4,1-phenylene)bis(1-(cyclobutylcarbonyl)-4-hydroxy-2-pyrrolidinecarboxamide)]",0.1 to 0.999 µM
3,"O=C(Nc1ccc(-c2cnc(-c3ccc(NC(=O)[C@@H]4CCCN4C(=O)CC4CC4)cc3)o2)cc1)[C@@H]1CCCN1C(=O)CC1CC1 [XY-24, (2S,2′S)-N,N′-(1,3-oxazole-2,5-diyldi-4,1-phenylene)bis(1-(cyclopropylacetyl)-2-pyrrolidinecarboxamide)]",0.1 to 0.999 µM
4,"CC[C@@H](C(=O)N1CCC[C@H]1C(=O)Nc1ccc(-c2cnc(-c3ccc(NC(=O)[C@@H]4CCCN4C(=O)[C@H](CC)c4ccccc4)cc3)o2)cc1)c1ccccc1 [XY-20, (2S,2′S)-N,N′-(1,3-oxazole-2,5-diyldi-4,1-phenylene)bis(1-((2R)-2-phenylbutanoyl)-2-pyrrolidinecarboxamide)]",0.00457 to 0.099 µM
5,"CC(C)(C)O[C@@H]1C[C@@H](C(=O)Nc2ccc(-c3cnc(-c4ccc(NC(=O)[C@@H]5C[C@@H](OC(C)(C)C)CN5C(=O)C5CCCCC5)cc4)o3)cc2)N(C(=O)C2CCCCC2)C1 [XY-66, (2S,4R,2′S,4′R)-N,N′-(1,3-oxazole-2,5-diyldi-4,1-phenylene)bis(4-tert-butoxy-1-(cyclohexylcarbonyl)-2-pyrrolidinecarboxamide)]",1 to 10 µM
6,"O=C(Nc1ccc(-c2cnc(-c3ccc(NC(=O)[C@@H]4C[C@@H](O)CN4C(=O)CC4CC4)cc3)o2)cc1)[C@@H]1C[C@@H](O)CN1C(=O)CC1CC1 [XY-44, (2S,4R,2′S,4′R)-N,N′-(1,3-oxazole-2,5-diyldi-4,1-phenylene)bis(1-(cyclopropylacetyl)-4-hydroxy-2-pyrrolidinecarboxamide)]",1 to 10 µM

# Same assay, conditions: Hepatitis C virus, HCV 1b genotype replicon; read-out: EC50 1b
row,SMILES,EC50
1,"O=C(Nc1ccc(-c2nnc(-c3ccc(NC(=O)[C@@H]4CCCN4C(=O)[C@@H]4CCCO4)cc3)o2)cc1)[C@@H]1CCCN1C(=O)C1CCCO1 (stereo partly drawn) [Example D-60, (S,2S,2′S)-N,N′-(4,4′-(1,3,4-oxadiazole-2,5-diyl)bis(4,1-phenylene))bis(1-((S)-tetrahydrofuran-2-carbonyl)pyrrolidine-2-carboxamide)]",0.65 µM
2,"CC[C@@H](C(=O)N1CCC[C@H]1C(=O)Nc1ccc(-c2cnc(-c3ccc(NC(=O)[C@@H]4CCCN4C(=O)[C@H](CC)c4ccccc4)cc3)o2)cc1)c1ccccc1 [XY-20, (2S,2′S)-N,N′-(1,3-oxazole-2,5-diyldi-4,1-phenylene)bis(1-((2R)-2-phenylbutanoyl)-2-pyrrolidinecarboxamide)]",0.062 µM
3,"O=C(Nc1ccc(-c2nnc(-c3ccc(NC(=O)[C@@H]4CCCN4C(=O)[C@H](O)c4ccccc4)cc3)o2)cc1)[C@@H]1CCCN1C(=O)[C@H](O)c1ccccc1 [RK-16, (2S,2′S)-N,N′-(1,3,4-oxadiazole-2,5-diyldi-4,1-phenylene)bis(1-((2R)-2-hydroxy-2-phenylacetyl)-2-pyrrolidinecarboxamide)]",< 0.005 µM
